Source: US10266544B2, “Aryl substituted aminomethyl spectinomycin analogs as antibacterial agents” (ST. JUDE CHILDREN'S RESEARCH HOSPITAL, INC., priority 2013, dated 2019)
Counter-ions that a name gives are not always drawn. Like-named read-outs stand apart in the source and are kept apart here.

Assays:
Assay type in all cases: cell-based
Moraxella catarrhalis = assay: MIC determination (Table 6)
[1] = test system: acinetobacter baumannii (ATCC 19606); assay: MIC determination, microbroth dilution; conditions: ATCC19606
[2] = test system: Streptococcus pneumoniae (R6); assay: MIC determination, microbroth dilution; conditions: read-out: MIC S. pn.
[3] = test system: Burkholderia cepacia (ATCC 25416); assay: MIC determination, microbroth dilution; conditions: Burkholderia cepacia
[4] = test system: Neisseria gonorrhoeae (ATCC 49226); assay: Disc diffusion assay; conditions: ATCC49226, 4 μg per disc, read-out: Zone of inhibition N.g.
Listeria monocytogenes = assay: MIC determination (Table 6)
[5] = test system: MRSA, Staphylococcus aureus (NRS70); assay: MIC determination, microbroth dilution; conditions: read-out: MIC MRSA
[6] = test system: Proteus mirabilis (ATCC 25933); assay: MIC determination, microbroth dilution; conditions: ATCC25933
[7] = test system: Bacillus subtilis (ATCC 23857); assay: MIC determination, microbroth dilution; conditions: ATCC23857; Bacillus subtilis (ATCC 23857); read-out: MIC B.s.
[8] = test system: Haemophilus influenza (ATCC 49247); assay: microbe, parasite or virus in culture; conditions: ATCC49247; Haemophilus influenza; 4 μg per disc; range of at least two experiments; read-out: Zone of inhibition H.i.
Bacillus anthracis = assay: microbe, parasite or virus in culture; conditions: read-out: MIC B.a.
E. coli K12 ΔtolC = assay: microbe, parasite or virus in culture; conditions: Escherichia coli, read-out: MIC E.c. Δtolc
[9] = test system: Neisseria gonorrhoeae (ATCC 49226); assay: Agar MIC determination (Alamar Blue)
[10] = test system: Enterococcus faecalis (ATCC 33186); assay: MIC determination, microbroth dilution
[11] = test system: Proteus vulgaris (ATCC 33420); assay: MIC determination, microbroth dilution; conditions: ATCC33420
[12] = test system: Staphylococcus aureus (ATCC 29213); assay: MIC determination, microbroth dilution; conditions: ATCC29213; Staphylococcus aureus (ATCC 29213); read-out: MIC S.a.
[13] = test system: Stenotrophomonas maltophilia (ATCC 13637); assay: MIC determination, microbroth dilution
[14] = test system: Bacillus anthracis, Sterne 34F2; assay: microbe, parasite or virus in culture; conditions: STERNE34F2, read-out: MIC B.a.
[15] = test system: Neisseria meningitides (ATCC 13077); assay: Disc diffusion assay; conditions: ATCC13077, 4 μg per disc, read-out: Zone of inhibition N.m.
[16] = test system: Klebsiella pneumoniae (ATCC 33495); assay: MIC determination, microbroth dilution; conditions: ATCC33495
[17] = test system: Pseudomonas aeruginosa (PA01); assay: MIC determination, microbroth dilution
[18] = test system: Legionella pneumophila (ATCC 33153); assay: microbe, parasite or virus in culture; conditions: ATCC33153, 72 h, read-out: Zone of inhibition L.p.
[19] = test system: Streptococcus pyogenes (ATCC 700294); assay: MIC determination, microbroth dilution
[20] = test system: Escherichia coli (ATCC 700926); assay: MIC determination, microbroth dilution; conditions: ATCC700926; Escherichia coli (ATCC 700926); read-out: MIC E.c.
[21] = test system: M. tuberculosis clinical isolates; assay: microbe, parasite or virus in culture; conditions: Mycobacterium tuberculosis, H37RV, read-out: MIC H37Rv
[22] = ATCC25416, read-out: MIC B.c., Burkholderia cepacia (ATCC 25416)
[23] = ATCC25416, read-out: MIC B.c., Burkholderia cepacia, Table 6
[24] = ATCC49226, agar MIC, read-out: MIC N.g.
[25] = ATCC33186, Enterococcus faecalis (ATCC 33186), read-out: MIC E.f.
[26] = ATCC13637, Stenotrophomonas maltophilia (ATCC 13637), read-out: MIC S.m.
[27] = ATCC700294, Streptococcus pyogenes (ATCC 700294), read-out: MIC S. py.
[28] = Enterococcus faecalis, ATCC33186, read-out: MIC E.f.

## CN[C@@H]1[C@H](O)[C@H](NC)[C@H]2O[C@]3(O)[C@H](O[C@@H]2[C@H]1O)O[C@H](C)C[C@@]3(O)CNCc1cccnc1 [compound 7, 3′-(R)-3′-(3-pyridinylmethylaminomethyl)dihydrospectinomycin Tetrahydrobromide]
Moraxella catarrhalis
  MIC: 6.3 µg/mL
[1]
  MIC: ≥ 200 µg/mL
[2]; Streptococcus pneumoniae
  MIC: 12.5 to 25 µg/mL
[3]; [22]
  MIC: ≥ 200 µg/mL
[3]; [23]
  MIC: ≥ 200 µg/mL
[4]
  zone of inhibition at 4 µg/disc: 7 mm
Listeria monocytogenes
  MIC: 25 µg/mL
[5]; Staphylococcus aureus (NRS70)
  MIC: > 200 µg/mL
[6]
  MIC: > 200 µg/mL
[7]
  MIC: 100 µg/mL
[8]
  zone of inhibition at 4 µg/disc: 7 mm
Bacillus anthracis
  MIC: 100 µg/mL
E. coli K12 ΔtolC
  MIC: 12.5 to 25 µg/mL
[9]; [24]
  MIC: 200 µg/mL
[10]; [25]
  MIC: 200 µg/mL
[11]
  MIC: > 200 µg/mL
[12]
  MIC: ≥ 200 µg/mL
[13]; [26]
  MIC: 100 µg/mL
[14]
  MIC: 100 µg/mL
[15]
  zone of inhibition at 4 µg/disc: 9 mm
[16]
  MIC: > 200 µg/mL
[17]
  MIC: > 200 µg/mL
[18]
  zone of inhibition at 4 µg/disc: 42 mm
[19]; [27]
  MIC: 25 µg/mL
[20]
  MIC: 50 µg/mL
[21]
  MIC: 50 to 100 µg/mL

## CN[C@@H]1[C@H](O)[C@H](NC)[C@H]2O[C@]3(O)[C@H](O[C@@H]2[C@H]1O)O[C@H](C)C[C@@]3(O)CNCc1cccs1 [compound 17, 3′-(R)-3′-(2-thiophenylmethylaminomethyl)dihydrospectinomycin Trihydrochloride]
Moraxella catarrhalis
  MIC: 3.1 µg/mL
[1]
  MIC: > 200 µg/mL
[2]; Streptococcus pneumoniae (R6)
  MIC: 12.5 µg/mL
[3]; [22]
  MIC: > 200 µg/mL
[3]; [23]
  MIC: > 200 µg/mL
[4]
  zone of inhibition at 4 µg/disc: 11 mm
Listeria monocytogenes
  MIC: 12.5 µg/mL
[5]; Staphylococcus aureus (NRS70)
  MIC: 100 to 200 µg/mL
[6]
  MIC: > 200 µg/mL
[7]
  MIC: 25 µg/mL
[8]
  zone of inhibition at 4 µg/disc: 13 mm
Bacillus anthracis
  MIC: 50 µg/mL
E. coli K12 ΔtolC
  MIC: 6.3 to 12.5 µg/mL
[9]; [24]
  MIC: 50 µg/mL
[10]; [25]
  MIC: 50 µg/mL
[11]
  MIC: 200 µg/mL
[12]
  MIC: 50 µg/mL
[13]; [26]
  MIC: 6.3 µg/mL
[14]
  MIC: 50 µg/mL
[15]
  zone of inhibition at 4 µg/disc: 15 mm
[16]
  MIC: 200 µg/mL
[17]
  MIC: ≥ 200 µg/mL
[18]
  zone of inhibition at 4 µg/disc: 41 mm
[19]; Streptococcus pyogenes, ATCC700294, read-out: MIC S. py.
  MIC: 6.3 to 12.5 µg/mL
[20]
  MIC: 50 µg/mL
[21]
  MIC: 25 µg/mL

## CN[C@@H]1[C@H](O)[C@H](NC)[C@H]2O[C@]3(O)[C@H](O[C@@H]2[C@H]1O)O[C@H](C)C[C@@]3(O)CNCc1ccc(Cl)cc1 [compound 18, 3′-(R)-3′-(4-Chlorobenzylaminomethyl)dihydrospectinomycin Trihydrobromide]
Moraxella catarrhalis
  MIC: 0.8 µg/mL
[1]
  MIC: > 200 µg/mL
[2]; Streptococcus pneumoniae (R6)
  MIC: 1.6 to 3.1 µg/mL
[3]; [22]
  MIC: 100 to 200 µg/mL
[3]; [23]
  MIC: 100 to 200 µg/mL
Listeria monocytogenes
  MIC: 6.3 µg/mL
[5]; Staphylococcus aureus
  MIC: 12.5 to 25 µg/mL
[6]
  MIC: 200 µg/mL
[7]
  MIC: 3.1 µg/mL
[8]
  zone of inhibition at 4 µg/disc: 15 to 16 mm
Bacillus anthracis
  MIC: 25 µg/mL
E. coli K12 ΔtolC
  MIC: 3.1 to 6.3 µg/mL
[9]; [24]
  MIC: 25 µg/mL
[10]; [28]
  MIC: 6.3 to 12.5 µg/mL
[11]
  MIC: 100 to 200 µg/mL
[12]
  MIC: 25 to 50 µg/mL
[13]; [26]
  MIC: 25 µg/mL
[14]
  MIC: 25 µg/mL
[15]
  zone of inhibition at 4 µg/disc: 16 to 18 mm
[16]
  MIC: 200 µg/mL
[17]
  MIC: 200 µg/mL
[18]
  zone of inhibition at 4 µg/disc: 21 mm
[19]; [27]
  MIC: 0.8 to 1.6 µg/mL
[20]
  MIC: 12.5 to 25 µg/mL
[21]
  MIC: 12.5 µg/mL

## CN[C@@H]1[C@H](O)[C@H](NC)[C@H]2O[C@]3(O)[C@H](O[C@@H]2[C@H]1O)O[C@H](C)C[C@@]3(O)CNCc1nccs1 [compound 19, 3′-(R)-3′-(2-thiazolylmethyl)aminomethyldihydrospectinomycin Tetrahydrobromide]
Moraxella catarrhalis
  MIC: 12.5 µg/mL
[1]
  MIC: > 200 µg/mL
[2]; Streptococcus pneumoniae (R6)
  MIC: 12.5 µg/mL
[3]; [22]
  MIC: > 200 µg/mL
[3]; [23]
  MIC: > 200 µg/mL
[4]
  zone of inhibition at 4 µg/disc: 9 mm
Listeria monocytogenes
  MIC: 25 µg/mL
[5]; Staphylococcus aureus (NRS70)
  MIC: > 200 µg/mL
[6]
  MIC: > 200 µg/mL
[7]
  MIC: 100 µg/mL
[8]
  zone of inhibition at 4 µg/disc: 10 mm
Bacillus anthracis
  MIC: 100 µg/mL
E. coli K12 ΔtolC
  MIC: 12.5 to 25 µg/mL
[9]; [24]
  MIC: 100 µg/mL
[10]; [25]
  MIC: 50 µg/mL
[11]
  MIC: > 200 µg/mL
[12]
  MIC: 100 µg/mL
[13]; [26]
  MIC: 25 to 50 µg/mL
[14]
  MIC: 100 µg/mL
[15]
  zone of inhibition at 4 µg/disc: 13 mm
[16]
  MIC: > 200 µg/mL
[17]
  MIC: > 200 µg/mL
[18]
  zone of inhibition at 4 µg/disc: 39 mm
[19]; [27]
  MIC: 12.5 µg/mL
[20]
  MIC: 200 µg/mL
[21]
  MIC: 100 µg/mL

## CN[C@@H]1[C@H](O)[C@H](NC)[C@H]2O[C@]3(O)[C@H](O[C@@H]2[C@H]1O)O[C@H](C)C[C@@]3(O)CNCc1ccc(Cl)s1 [compound 21, 3′-(A′)-3′-[(5-Chloro)-2-thiophenylmethylaminomethyl)dihydrospectinomycin Trihydrobromide]
Moraxella catarrhalis
  MIC: 0.8 µg/mL
[1]
  MIC: > 200 µg/mL
[2]; Streptococcus pneumoniae (R6)
  MIC: 3.1 µg/mL
[3]; [22]
  MIC: 200 µg/mL
[3]; [23]
  MIC: 200 µg/mL
[4]
  zone of inhibition at 4 µg/disc: 20 mm
Listeria monocytogenes
  MIC: 6.3 µg/mL
[5]; Staphylococcus aureus (NRS70)
  MIC: 200 µg/mL
[6]
  MIC: > 200 µg/mL
[7]
  MIC: 25 to 50 µg/mL
[8]
  zone of inhibition at 4 µg/disc: 13 mm
Bacillus anthracis
  MIC: 50 µg/mL
E. coli K12 ΔtolC
  MIC: 12.5 µg/mL
[9]; ATCC49226, read-out: MIC N.g.
  MIC: 12.5 to 25 µg/mL
[10]; [28]
  MIC: 12.5 µg/mL
[11]
  MIC: ≥ 200 µg/mL
[12]
  MIC: 25 to 50 µg/mL
[13]; Stenotrophomonas maltophilia, ATCC13637, read-out: MIC S.m.
  MIC: 12.5 µg/mL
[14]
  MIC: 50 µg/mL
[15]
  zone of inhibition at 4 µg/disc: 19 mm
[16]
  MIC: > 200 µg/mL
[17]
  MIC: > 200 µg/mL
[18]
  zone of inhibition at 4 µg/disc: 22 mm
[19]; [27]
  MIC: 1.6 µg/mL
[20]
  MIC: 50 µg/mL
[21]
  MIC: 100 µg/mL
